Measured values from patent US8691726B2, “Synergistic combination of a glyphosate compound and ZPT” (Dow Global Technologies LLC, priority 2010, dated 2014).
In brackets after ≈: the same amount, converted by molar mass. Like-named read-outs stand apart in the source and are kept apart here.

Experiments:
[1] = test system: Alternaria alternata was mixed with Aureobasidium pullulans; test: Fungal efficacy on dry paint film (Modified ASTM 5590), pool Aa + Ap; format: cell-based; details: 672 h, four weeks
Description: (§1) Each sample was tested in duplicate.
(§2) Fungal efficacy was tested as follows (Modified ASTM 5590).

various algae = details: cited from earlier work
[2] = test system: Cladosporium herbarum was mixed with Trichoderma viride; test: Fungal efficacy on dry paint film (Modified ASTM 5590), pool TV + Ch; format: cell-based; details: four weeks
Description: as §1, §2

[3] = test system: Aspergillus niger was mixed with Penicillium funiculosum; test: Fungal efficacy on dry paint film (Modified ASTM 5590), pool An + Pf; format: cell-based; details: for % Inhibition An + Pf: four weeks; for % Inhibition, An-Pf: at the total conc printed for the same blend
Description: (§3) A single biocide or blend of biocides was post added into white acrylic latex paint free of biocides to give a maximum total active ingredient/s concentration tested. This paint was then diluted with a biocide free acrylic latex paint to give targeted concentrations for the testing. Depending on the type of biocide blends tested, the total biocides concentrations varies from 400 to 3300 ppm. After biocides addition or dilution, each sample was hand mixed for at least a minute until uniformity was achieved. Each of the paint samples as well as a control sample (containing no biocide) were used to prepare films on black plastic-vinyl chloride/acetate copolymer panels (Leneta Company, Mahwah, N.J.) using a 0.0762 mm (3 mil) bird bar applicator. The panels were thoroughly dried for at least 2 days avoiding direct exposure to sunlight. Square discs (0.5 inch^2; 1.27 cm^2) were cut out from each panel and were used as the substrate for fungal and algal efficacy tests. This sample size allowed for an agar border when the sample disc was placed into the well of the test plate. Each sample was tested in duplicate.
(§4) The appropriate media (BOLD'S 3N for Chlorophytes, BG-11 for Cyanobacteria, and PDA for fungi) were used to support microbial growth. The test plates were maintained at room temp (25° C.-26° C.), in a cycled light-dark environment, for four weeks for algae. Plates for fungal challenge tests were maintained at 30° C. for four weeks. At the end of the incubation period the samples were scored for percent area covered by visible microbial growth.
as §2
ASTM 5590 is a standard accelerated test method for determining resistance of various coatings (including paints) to fungal defacement. To accommodate for high-throughput screening, this method was scaled down from petri plates to 6-well plates. To set up the test, an agar plug was placed at the bottom of each well of the sterile 6-well plate. A single coupon was placed with a pair of sterile forceps at the center of the agar plug (on top) with the painted surface facing upwards. Fungal inoculums were prepared by mixing equal concentrations (approximately 1×10^6 cfu/ml) and equal volumes (depending on number of samples to be tested) of like growing organisms. For this synergy study, three pools of mixed fungi were prepared as the test inoculum. Cladosporium herbarum was mixed with Trichoderma viride, Aspergillus niger was mixed with Penicillium funiculosum and Alternaria alternata was mixed with Aureobasidium pullulans. Each well was inoculated with 400 microliter of organism mixture (approximately 1×10^6 cfu/ml) making sure that the whole surface (paint film as well as the agar surrounding it) was evenly covered. The plates were incubated at 30° C. in presence of moisture, for a period of four weeks. The total percent area covered was evaluated and recorded at the end of each week and recorded in increments of 5%.
(§5) The SI is calculated based on F. C. Kull et.
(§6) SI value of <1 in the formula indicates a synergism of the blended biocides exists.
(§7) NE=no end point at the concentration tested that will meet the percent inhibition criteria set in each SI calculation.

[4] = test system: blue-green algae (Anabaena flos-aquae); details: 7 day; cited from earlier work
[5] = test system: marine algae (Skeletonema costatum); details: cited from earlier work
[6] = test system: diatom (Navicula pelliculosa); details: 7 day; cited from earlier work
[7] = test system: Chlorella sp., Chlorella kessleri, and Nostoc commune; test: Algal efficacy on dry paint film (Modified ASTM 5589), pool Cs + Ck + Nc; format: cell-based
Description: as §3, §4
(§8) Algal efficacy was tested as follows (Modified ASTM 5589).
(§9) ASTM 5589 is a standard accelerated test method for determining resistance of various coatings (including paints) to algal defacement. To accommodate for high-throughput screening, this method was scaled down from petri plates to 6-well plates. A single coupon was placed with a pair of sterile forceps at the center of the agar plug (on top) with the painted surface facing upwards. Algal inoculums were prepared by mixing equal concentrations (approximately 1×10^6 cfu/ml) and equal volumes (depending on number of samples to be inoculated) of like growing organisms.
(§10) In this synergy study, three pool of mixed algae were prepared as the test inoculum, Gloeocapsa sp. and Oscillatoria sp. a mix of cyanobacteria grown on BG-11 media; Chlorella sp., Chlorella kessleri, and Nostoc commune are unicellular chlorphytes that were mixed and grown on Bold media; Trentepohlia aurea, Tretepohlia odorata, and Calotrix parientina are filamentous algae that were mixed and grown on Bold media.
(§11) Each well that contained a tested coupon was inoculated with 400 μl of organism mixture (approximately 1×10^6 cfu/ml) making sure that the whole surface (paint film as well as the agar surrounding it) was evenly covered. The plates were incubated at room temp (25° C.-26° C.) with cyclic exposure to light (OTT-Lite model # OTL4012P, 40 Watt, 26 KLumen) and dark phases, for a period of four weeks. The total area covered was evaluated at the end of each week according to percent area covered in 5% increments.
as §5, §6, §7

[8] = cited from earlier work
[9] = test system: green algae (Selenastrum capricornutum); details: cited from earlier work; for EbC50: biomass
[10] = test system: Trentepohlia aurea, Tretepohlia odorata, and Calotrix parientina; test: Algal efficacy on dry paint film (Modified ASTM 5589), pool Cp + To + Ta; format: cell-based; details: for % Inhibition Cp + To + Ta: four weeks; for % Inhibition, Cal-Tre: at the total conc printed for the same blend
Description: as §3, §4, §8, §9, §10, §11, §5, §6, §7

[11] = test system: Gloeocapsa sp. and Oscillatoria sp.; test: Algal efficacy on dry paint film (Modified ASTM 5589), pool Gs + Os; format: cell-based; details: for % Inhibition Gs + Os: four weeks; for % Inhibition, Os-Gl: at the total conc printed for the same blend
Description: as §3, §4, §8, §9, §10, §11, §5, §6, §7

[12] = 672 h, read-out: % Inhibition An + Pf
[13] = Nostoc commune, 672 h, read-out: % Inhibition Cs + Ck + Nc
[14] = Trentepohlia aurea, 672 h, read-out: % Inhibition Cp + To + Ta
[15] = 672 h, read-out: % Inhibition Gs + Os

Compound: O=C(O)CNCP(=O)(O)O [glyphosate, N-(phosphonomethyl)glycine]
- inhibition at 750 ppm ([1]; 750 ppm in paint): 7.5%
- inhibition at 1500 ppm ([1]; 1500 ppm in paint): 20%
- inhibition at 2500 ppm ([1]; 2500 ppm in paint): 67.5%
- activity against various algae (various algae): relatively low
- inhibition at 750 ppm ([2]; 672 h, 750 ppm in paint): 2.5%
- inhibition at 1500 ppm ([2]; 672 h, 1500 ppm in paint): 50%
- inhibition at 2500 ppm ([2]; 672 h, 2500 ppm in paint): 72.5%
- inhibition at 750 ppm [3, 12]: 0%
- inhibition at 1500 ppm [3, 12]: 5%
- inhibition at 2500 ppm [3, 12]: 10%
- EC50 [4]: 15 µg/mL (≈ 88.7 µM)
- EC50 ([5]; 96 hr): 1.3 µg/mL (≈ 7.69 µM)
- EC50 ([5]; 7 day): 0.64 µg/mL (≈ 3.79 µM)
- EC50 [6]: 42 µg/mL (≈ 248 µM)
- inhibition at 750 ppm [7, 13]: 37.5%
- inhibition at 1500 ppm [7, 13]: 60%
- inhibition at 2500 ppm [7, 13]: 80%
- solubility in water [8]: relatively high
- EbC50 ([9]; 72 hr): 485 mg/L
- ErC50 ([9]; 72 hr, growth rate): 460 mg/L
- EbC50 ([9]; 7 day): 13.8 mg/L
- inhibition at 750 ppm [10, 14]: 0%
- inhibition at 1500 ppm [10, 14]: 10%
- inhibition at 2500 ppm [10, 14]: 7.5%
- inhibition at 750 ppm [11, 15]: 15%
- inhibition at 1500 ppm [11, 15]: 72.5%
- inhibition at 2500 ppm [11, 15]: 90%

Compound: zinc glyphosate
- % Inhibition TV + Ch ([2]; 750 ppm in paint): 50%
- % Inhibition TV + Ch ([2]; 1500 ppm in paint): 75%
- % Inhibition TV + Ch ([2]; 2500 ppm in paint): 90%
- % Inhibition An + Pf ([3]; 750 ppm in paint): 20%
- % Inhibition An + Pf ([3]; 1500 ppm in paint): 27.5%
- % Inhibition An + Pf ([3]; 2500 ppm in paint): 30%
- % Inhibition, An-Pf ([3]; An-Pf): 100%
- % Inhibition Cp + To + Ta ([10]; 750 ppm in paint): 0%
- % Inhibition Cp + To + Ta ([10]; 1500 ppm in paint): 0%
- % Inhibition Cp + To + Ta ([10]; 2500 ppm in paint): 0%
- % Inhibition, Cal-Tre ([10]; Cal-Tre): 100%
- % Inhibition Gs + Os ([11]; 750 ppm in paint): 15%
- % Inhibition Gs + Os ([11]; 1500 ppm in paint): 72.5%
- % Inhibition Gs + Os ([11]; 2500 ppm in paint): 90%
- % Inhibition, Os-Gl ([11]; Os-Gl): 100%

Compound: zinc pyrithione [ZPT]
- % Inhibition, An-Pf ([3]; An-Pf): 0%
- Total conc (minimum inhibitory concentration chosen for SI), An-Pf ([3]; total active in paint, An-Pf): 3300 pppm
- % Inhibition, Ch-No ([7]; at the total conc printed for the same blend, Ch-No): 80%
- Total conc (minimum inhibitory concentration chosen for SI), Ch-No ([7]; total active in paint, Ch-No): 412.5 pppm
- % Inhibition, Cal-Tre ([10]; Cal-Tre): 40%
- Total conc (minimum inhibitory concentration chosen for SI), Cal-Tre ([10]; total active in paint, Cal-Tre): 3300 pppm
- % Inhibition, Os-Gl ([11]; Os-Gl): 100%
- Total conc (minimum inhibitory concentration chosen for SI), Os-Gl ([11]; total active in paint, Os-Gl): 3300 pppm
